Laboratory results as given in patent US20240358672A1, “APPLICATION OF GENISTEIN AND ITS PHOSPHATE ESTER DERIVATIVE AND PHARMACEUTICAL COMPOSITION COMPRISING THE SAME” (National Taiwan University, priority 2023, published 2024).
Read-outs that look alike come from different tables or passages of the source.

Experiments:
C57BL/6J mice [1] = assay: Echocardiographic analysis of mice
Experimental: (§1) FIG. 8A to 8C illustrate the effects of genistein and Δ^9-THC on cardiac contraction in vivo or in vitro experiments according to Example 9. […] After treatment exposure, the contractility, relaxation and peak force of EHT were measured using the Sony imaging platform. FIG. 8B: Same as the former, analysis of heart rate and contraction-relaxation (CR) interval (48 hours). […] Mice were anesthetized with 1%-2% isoflurane, and images were acquired in the parasternal long-axis (PLA) and parasternal short axis (PSA) on a Visualsonic Vevo 2100 platform. The ventricular (LV) dimensions were traced offline, and the ejection fraction (EF) was calculated using Simpson's biplane method of discs.
(§2) The inventor used engineered heart tissues (EHTs) composed of hiPSC-ECs and hiPSC-derived cardiomyocytes (hiPSC-CMs) to interrogate the effects of genistein and Δ^9-THC on contractility in vitro.

[2] = test system: engineered heart tissues (EHTs) composed of hiPSC-ECs and hiPSC-CMs; assay: Engineered heart tissues (EHTs) contractility
Experimental: as §1, §2

hiPSC-ECs = assay: qPCR gene expression in hiPSC-ECs; format: cell-based, human; conditions: 48 hours
C57BL/6J mice [3] = format: in vivo
Experimental: FIG. 7A: Isometric tension recordings of isolated mice thoracic aortas were performed using a wire myograph. Vascular concentration-dependent relaxation was induced by acetylcholine (ACh) in pre-constricted mouse thoracic arteries. […] FIG. 7C: Luminex analysis of inflammatory cytokines in plasma of C57BL/6J mice treated with vehicle control, Δ^9-THC, or Δ^9-THC plus genistein. […] FIG. 7E: Effect of Δ^9-THC and genistein on NF-κB phosphorylation in mouse thoracic artery. Total cell lysates were prepared, and the expressions of phosphor-NF-κB were analyzed by ELISA (upper left). Superoxide dismutase (SOD) activity of serum from mouse (bottom left). The effect of Δ^9-THC and genistein on NF-κB phosphorylation in mouse thoracic artery tissues (n=5). Total cell lysates were prepared, and the expressions of NF-κB, phosphorylated NF-κB, and β-actin were analyzed by western blot analysis (right panel). FIG. 7F: The levels reduced glutathione (GSH), Oxidized glutathione (GSSG), Total glutathione (T-GSH) and GSH/GSSG in the serum samples of mice were detected. Plasma isolated from C57BL/6J mice (n=5) treated with vehicle control, Δ^9-THC, genistein, or their combination every day for 30 days was analyzed by the glutathione colorimetric assay kit (BioVision, K261).
Genistein also rescued the oxidative stress protective-related gene expression (FIG. 7D). In addition, NF-κB phosphorylation and SOD expression in mouse serum were also attenuated with genistein (FIG. 7E). Δ^9-THC administration decreased circulating levels of the antioxidant glutathione, which was ameliorated with genistein cotreatment (FIG. 7F).

Apoe^−/− mice = assay: Apoe−/− partial carotid artery ligation (PCAL) atherosclerosis model; format: in vivo, mouse; conditions: HFD 10 days
Description: FIG. 10A to 10C illustrate the effects of Δ^9-THC and genistein on the treatment of atherosclerosis in vivo using the Apoe^−/− mouse model according to Example 10. FIG. 10A: Gross images of carotid arteries after oil red O staining are shown (left panel). The scale bar represents 1 mm. A diagram of partial ligation of the carotid artery is shown (right panel). […] The right subclavian artery (RSA), right common carotid artery (RCA), and left subclavian artery (LSA) were unligated and remained patent. FIG. 10B: Carotid artery sections were counterstained with hematoxylin and eosin (H&E), and a representative slide was presented with scale bars at 100 μm (left panel). Oil red O staining of atherosclerotic plaques in cross-section of mouse carotid artery with scale bar at 100 μm. The atherosclerotic plaques were quantified (right panel). FIG. 10C: Carotid artery sections were immunostained with an anti-F4/80 antibody. […] Quantification of F4/80-positive area within carotid artery sections (top right). Carotid artery sections were immunostained with an anti-CD68 antibody. […] Quantification of CD68-positive area within carotid artery sections is shown (bottom right).
Further, an Apoe^−/− mouse model was also employed to investigate the effects of Δ^9-THC and cotreatment with genistein on atherosclerosis. Partial carotid artery ligation (PCAL) was performed in Apoe^−/− mice at 10-16 weeks. […] All mice were fed a HFD for 10 days. At the end of the treatment protocol, the Apoe^−/− mice were euthanized and subjected to histological analysis. […] Macrophage recruitment was tested using the macrophage-specific F4/80 antibody and CD68 antibody. […] Consistent with the Ldlr^−/− model findings, the Apoe^−/− PCAL mouse model found increased plaque size and increased macrophage recruitment with Δ^9-THC, and genistein cotreatment ameliorated these indices of atherosclerosis in ligated carotid arteries.

[4] = single agent: Δ^9-THC 1 mg/kg i.p. or genistein 50 mg/kg p.o.
[5] = 10 μM genistein with 5 μM Δ^9-THC
[6] = Δ^9-THC 1 mg/kg plus genistein 50 mg/kg

## O=c1c(-c2ccc(O)cc2)coc2cc(O)cc(O)c12 [genistein]
C57BL/6J mice [1]; cotreatment Δ^9-THC 1 mg/kg i.p. and genistein 50 mg/kg p.o.
  cardiac structure or function (EF, HR, LVEDV, LVEDM): did not affect cardiac structure or function
C57BL/6J mice [1]; [4]
  cardiac structure or function (EF, HR, LVEDV, LVEDM): did not affect cardiac structure or function
[2]
  contraction, relaxation, and peak force of EHTs: no significant effect
  Δ^9-THC effects on beat rate and contraction-relaxation interval: did not attenuate these effects
hiPSC-ECs; [5]
  NOS2 and NOX1 expression: salutatory effect
  Δ^9-THC-induced TLR4 expression: disrupted its expression
C57BL/6J mice [3]; Δ^9-THC 1 mg/kg plus genistein 50 mg/kg or rimonabant 3 mg/kg
  Δ^9-THC-induced mRNA expressions of inflammation-related genes in mouse thoracic artery tissues: ameliorated
C57BL/6J mice [3]; Δ^9-THC plus genistein
  NF-κB phosphorylation in mouse thoracic artery: attenuated
  SOD expression in mouse serum: attenuated
  oxidative stress protective-related gene expression in thoracic artery tissues: rescued
C57BL/6J mice [3]; Δ^9-THC plus genistein cotreatment
  plasma IL-6, IL-3 and IL-10 (Luminex): significantly reduced
C57BL/6J mice [3]; Δ^9-THC plus genistein cotreatment, every day for 30 days
  Δ^9-THC-decreased circulating glutathione: ameliorated
Apoe^−/− mice; [6]
  CD68-positive area in ligated carotid artery: reduced
  F4/80-positive area in ligated carotid artery: decreased
  plaque size in ligated carotid artery (oil red O): ameliorated the plaque size

## CCCCCc1cc(O)c2c(c1)OC(C)(C)[C@@H]1CCC(C)=C[C@@H]21 [Δ^9-THC, Δ^9-tetrahydrocannabinol]
C57BL/6J mice [1]; [4]
  cardiac structure or function (EF, HR, LVEDV, LVEDM): did not affect cardiac structure or function
[2]; 5 μM Δ^9-THC, 48 hours
  beat rate of EHTs: decreased beat rate
  contraction-relaxation interval of EHTs: increased the contraction-relaxation interval
hiPSC-ECs; 5 μM Δ^9-THC alone
  TLR4 expression: induced TLR4 expression
  expression of ROS-related genes NOX1 and NOS2: upregulated
  mRNA expression of antioxidant-related genes (SOD1, SOD2, CAT, GPX1): decreased mRNA expression
hiPSC-ECs; Δ^9-THC alone
  expression of I kappa B (NFKBIA): inhibited
  expression of proinflammatory cytokines and chemokines: increased
C57BL/6J mice [3]; Δ^9-THC alone
  plasma IL-6, IL-3 and IL-10 (Luminex): elevated
C57BL/6J mice [3]; Δ^9-THC alone, every day for 30 days
  circulating levels of the antioxidant glutathione: decreased
Apoe^−/− mice; Δ^9-THC 1 mg/kg
  CD68-positive area in ligated carotid artery: significantly increased
  F4/80-positive area in ligated carotid artery: significantly increased
  plaque area in ligated carotid artery (oil red O): increased
